Source: US20090306392A1, “GSM INTERMEDIATES” (priority 2007, published 2009)

Tested on: γ-secretase
Experiment: Screening for γ-secretase-modulating activity in SKNBE2 cells carrying APP 695-wild type
Format: cell-based
Conditions: SKNBE2 cells carrying the APP 695-wild type; for EC50: read-out: EC 50 WTAPP

Molecule | EC50 [nM] | further results
4-Methyl-2-[4′-trifluoromethyl-5-(4-trifluoromethyl-phenylamino)-biphenyl-3-yl]-pentanoic Acid [Example 10] | 280 | 
CCC(c1ccc(C(F)(F)F)cc1)N1CCCC(c2cc(-c3ccc(C(F)(F)F)cc3)cc([C@H](CC(C)C)C(=O)O)c2)C1 (single isomer, unassigned) [Example 35, (S*)4-Methyl-2-(4′-trifluoromethyl-5-{1-[1-(4-trifluoromethyl-phenyl)-propyl]-piperidin-3-yl}-biphenyl-3-yl)-pentanoic Acid] | 590 | 
CC(C)CCC(c1ccc(C(F)(F)F)cc1)N1CCCC(c2cc(-c3ccc(C(F)(F)F)cc3)cc([C@@H](CC(C)C)C(=O)O)c2)C1 (single isomer, unassigned) [Example 37, (R*)4-Methyl-2-(5-{1-[4-methyl-1-(4-trifluoromethyl-phenyl)-pentyl]-piperidin-3-yl}-4′-trifluoromethyl-biphenyl-3-yl)-pentanoic Acid] |  | % @ 0.3 uM (WTAPP): 44% @ 0.3 uM
CC(C)C[C@@H](C(=O)O)c1cc(OCc2cc(F)cc(F)c2)cc(-c2ccc(C(F)(F)F)cc2)c1 [Example 1, (R)2-[5-(3,5-Difluoro-benzyloxy)-4′-trifluoromethyl-biphenyl-3-yl]-4-methyl-pentanoic Acid] | 530 | 
CC(C)C[C@H](C(=O)O)c1cc(OCc2cc(F)cc(F)c2)cc(-c2ccc(C(F)(F)F)cc2)c1 [Example 2, (S)-2-[5-(3,5-Difluoro-benzyloxy)-4′-trifluoromethyl-biphenyl-3-yl]-4-methyl-pentanoic Acid] | 1520 | 
CC(C)C[C@@H](C(=O)O)c1cc(OCc2ccc(F)cc2C(F)(F)F)cc(-c2ccc(C(F)(F)F)cc2)c1 [Example 3, (R)-2-[5-(4-fluoro-2-trifluoromethyl-benzyloxy)-4′-trifluoromethyl-biphenyl-3-yl]-4-methyl-pentanoic Acid] | 570 | 
CC(C)CC(C(=O)O)c1cc(Nc2cc(F)cc(F)c2)cc(-c2ccc(C(F)(F)F)cc2)c1 (centres unmarked) [Example 9, 2-[5-(3,5-Difluoro-phenylamino)-4′-trifluoromethyl-biphenyl-3-yl]-4-methyl-pentanoic Acid] |  | inhibition @ 3 uM (WTAPP): 73% inhibition @ 3 uM
CC(C)CC(C(=O)O)c1cc(-c2ccc(C(F)(F)F)cc2)cc(N(C)c2ccc(C(F)(F)F)cc2)c1 (centres unmarked) [Example 13, 4-Methyl-2-{5-[methyl-(4-trifluoromethyl-phenyl)-amino]-4′-trifluoromethyl-biphenyl-3-yl}-pentanoic Acid] |  | % @ 0.3 uM (WTAPP): 21% @ 0.3 uM
CC(C)CC(C(=O)O)c1cc(Oc2cccc(C(C)C)c2)cc(-c2ccc(C(F)(F)F)cc2)c1 (centres unmarked) [Example 16, 2-[5-(3-Isopropyl-phenoxy)-4′-trifluoromethyl-biphenyl-3-yl]-4-methyl-pentanoic Acid] |  | inhibition @ 3 uM (WTAPP): 64% inhibition @ 3 uM
CC(C)CC(C(=O)O)c1cc(C(=O)c2cc(Cl)cc(Cl)c2)cc(-c2ccc(C(F)(F)F)cc2)c1 (centres unmarked) [Example 22, 2-[5-(3,5-Dichloro-benzoyl)-4′-trifluoromethyl-biphenyl-3-yl]-4-methyl-pentanoic Acid] | 710 | 
CC(C)CC(C(=O)O)c1cc(NC(=O)c2cccc(C(F)(F)F)c2)cc(-c2ccc(C(F)(F)F)cc2)c1 (centres unmarked) [Example 25, 4-Methyl-2-[4′-trifluoromethyl-5-(3-trifluoromethyl-benzoylamino)-biphenyl-3-yl]-pentanoic Acid] | 1790 | 
CC(C)CC(C(=O)O)c1cc(-c2ccc(C(F)(F)F)cc2)cc(C2CCCC(C(F)(F)F)N2)c1 (centres unmarked) [Example 27, 4-Methyl-2-[4′-trifluoromethyl-5-(6-trifluoromethyl-piperidin-2-yl)-biphenyl-3-yl]-pentanoic Acid] | 700 | 
CC(C)CC(C(=O)O)c1cc(-c2ccc(C(F)(F)F)cc2)cc(C2CCN(Cc3ccc(C(F)(F)F)cc3)CC2)c1 (centres unmarked) [Example 31, 4-Methyl-2-{4′-trifluoromethyl-5-[1-(4-trifluoromethyl-benzyl)-piperidin-4-yl]-biphenyl-3-yl}-pentanoic Acid] |  | % @ 0.3 uM (WTAPP): 8% @ 0.3 uM
CC(C)CCC(c1ccc(C(F)(F)F)cc1)N1CCC(c2cc(-c3ccc(C(F)(F)F)cc3)cc(C(CC(C)C)C(=O)O)c2)CC1 (centres unmarked) [Example 32, 4-Methyl-2-(5-{1-[4-methyl-1-(4-trifluoromethyl-phenyl)-pentyl]-piperidin-4-yl}-4′-trifluoromethyl-biphenyl-3-yl)-pentanoic Acid] | 2080 | 

More lines, main results first:

EC50 [nM] | Molecule | further results
360 | CCC(c1ccc(C(F)(F)F)cc1)N1CCCC(c2cc(-c3ccc(C(F)(F)F)cc3)cc([C@@H](CC(C)C)C(=O)O)c2)C1 (single isomer, unassigned) [Example 26, (R*)4-Methyl-2-(4′-trifluoromethyl-5-{1-[1-(4-trifluoromethyl-phenyl)-propyl]-piperidin-3-yl}-biphenyl-3-yl)-pentanoic Acid] | 
310 | CC(C)CC(C(=O)O)c1cc(OCc2cc(F)cc(F)c2)cc(-c2ccc(Cl)c(C(F)(F)F)c2)c1 (centres unmarked) [Example 4, 2-[4′-Chloro-5-(3,5-difluoro-2-benzyloxy)-3′-trifluoromethyl-biphenyl-3-yl]-4-methyl-pentanoic Acid] | 
190 | CC(C)CC(C(=O)O)c1cc(-c2ccc(C(F)(F)F)cc2)cc(-c2cc(F)cc(F)c2)c1 (centres unmarked) [Example 5, 2-(3,5-Difluoro-4″-trifluoromethyl-[1,1′;3′,1″]terphenyl-5′-yl)-4-methyl-pentanoic Acid] | 
140 | CC(C)CC(C(=O)O)c1cc(-c2ccc(C(F)(F)F)cc2)cc(-c2ccc(OC(F)(F)F)c(F)c2)c1 (centres unmarked) [Example 6, 2-(3-Fluoro-4-trifluoromethoxy-4″-trifluoromethyl-[1,1′;3′,1″]terphenyl-5′-yl)-4-methyl-pentanoic Acid] | 
290 | CC(C)CC(C(=O)O)c1cc(Nc2ccc(C(C)C)cc2)cc(-c2ccc(C(F)(F)F)cc2)c1 (centres unmarked) [Example 11, 2-[5-(4-Isopropyl-phenylamino)-4′-trifluoromethyl-biphenyl-3-yl]-4-methyl-pentanoic Acid] | 
150 | CC(C)C[C@@H](C(=O)O)c1cc(Nc2cc(C(F)(F)F)ccc2C(F)(F)F)cc(-c2ccc(C(F)(F)F)cc2)c1 [Example 12, (R)2-[5-(2,5-Bis-trifluoromethyl-phenylamino)-4′-trifluoromethyl-biphenyl-3-yl]-4-methyl-pentanoic Acid] | 
170 | CC(C)CCN(c1ccc(C(F)(F)F)cc1)c1cc(-c2ccc(C(F)(F)F)cc2)cc(C(CC(C)C)C(=O)O)c1 (centres unmarked) [Example 14, 4-Methyl-2-{5-[(3-methyl-butyl)-(4-trifluoromethyl-phenyl)-amino]-4′-trifluoromethyl-biphenyl-3-yl}-pentanoic Acid] | 
150 | CC(C)CCN(c1ccc(Cl)cc1)c1cc(-c2ccc(C(F)(F)F)cc2)cc(C(CC(C)C)C(=O)O)c1 (centres unmarked) [Example 15, 2-{5-[(4-Chloro-phenyl)-(3-methyl-butyl)-amino]-4′-trifluoromethyl-biphenyl-3-yl}-4-methyl-pentanoic Acid] | 
140 | CC(C)CC(C(=O)O)c1cc(Oc2cc(F)cc(C(F)(F)F)c2)cc(-c2ccc(Cl)c(C(F)(F)F)c2)c1 (centres unmarked) [Example 17, 4-Methyl-2-[4′-chloro-3′-trifluoromethyl-5-(3-fluoro-5-trifluoromethylphenoxy)-biphenyl-3-yl]-pentanoic Acid] | 
330 | CC(C)CC(C(=O)O)c1cc(Oc2cc(F)cc(C(F)(F)F)c2)cc(-c2ccc(C(F)(F)F)cc2)c1 (centres unmarked) [Example 18, 2-[5-(3-Fluoro-5-trifluoromethyl-phenoxy)-4′-trifluoromethyl-biphenyl-3-yl]-4-methyl-pentanoic Acid] | 
220 | CC(C)CC(C(=O)O)c1cc(-c2ccc(C(F)(F)F)cc2)cc(-c2cc(F)nc(F)c2)c1 (centres unmarked) [Example 19, 2-[5-(2,6-Difluoro-pyridin-4-yl)-4′-trifluoromethyl-biphenyl-3-yl]-4-methyl-pentanoic Acid] | 
320 | CC(C)CC(C(=O)O)c1cc(-c2ccc(C(F)(F)F)cc2)cc(-c2ccc(C(F)(F)F)cn2)c1 (centres unmarked) [Example 20, 4-Methyl-2-[4′-trifluoromethyl-5-(5-trifluoromethyl-pyridin-2-yl)-biphenyl-3-yl]-pentanoic Acid] | 
230 | CC(C)CCC(Oc1cc(-c2ccc(C(F)(F)F)cc2)cc(C(CC(C)C)C(=O)O)c1)c1cc(F)cc(F)c1 (centres unmarked) [Example 21, 2-{5-[1-(3,5-Difluoro-phenyl)-4-methyl-pentyloxy]-4′-trifluoromethyl-biphenyl-3-yl}-4-methyl-pentanoic Acid] | 
140 | CC(C)CC(C(=O)O)c1cc(/C=C/c2ccc(-c3ccccc3)cc2)cc(-c2ccc(C(F)(F)F)cc2)c1 (centres unmarked) [Example 23, 2-[5-(2-Biphenyl-4-yl-vinyl)-4′-trifluoromethyl-biphenyl-3-yl]-4-methyl-pentanoic Acid] | 
210 | CC(C)CC(C(=O)O)c1cc(CCc2ccc(-c3ccccc3)cc2)cc(-c2ccc(C(F)(F)F)cc2)c1 (centres unmarked) [Example 24, 2-[5-(2-Biphenyl-4-yl-ethyl)-4′-trifluoromethyl-biphenyl-3-yl]-4-methyl-pentanoic Acid] | 
110 | CC(C)CCN1C(c2cc(-c3ccc(C(F)(F)F)cc3)cc(C(CC(C)C)C(=O)O)c2)CCCC1C(F)(F)F (centres unmarked) [Example 28, 4-Methyl-2-{5-[1-(3-methyl-butyl)-6-trifluoromethyl-piperidin-2-yl]-4′-trifluoromethyl-biphenyl-3-yl}-pentanoic Acid] | 
270 | CC(C)CCN(Cc1cc(-c2ccc(C(F)(F)F)cc2)cc(C(CC(C)C)C(=O)O)c1)Cc1cc(F)c(F)c(F)c1 (centres unmarked) [Example 29, 4-Methyl-2-(5-{[(3-methyl-butyl)-(3,4,5-trifluoro-benzyl)-amino]-methyl}-4′-trifluoromethyl-biphenyl-3-yl)-pentanoic Acid] | 
250 | CC(C)CCN(Cc1cc(-c2ccc(C(F)(F)F)cc2)cc(C(CC(C)C)C(=O)O)c1)Cc1cc(C(F)(F)F)cc(C(F)(F)F)c1 (centres unmarked) [Example 30, 2-(5-{[(3,5-Bis-trifluoromethyl-benzyl)-(3-methyl-butyl)-amino]-methyl}-4′-trifluoromethyl-biphenyl-3-yl)-4-methyl-pentanoic Acid] | 
